The values that follow are results of earlier work, collected in article PMC7377239, “Cardiovascular Effects of Polychlorinated Biphenyls and Their Major Metabolites” (Environmental Health Perspectives, 2020).

This series concerns porcine pulmonary artery–derived EC. On the set-up: method as in Hennig et al. 2002, 2005; Toborek et al. 1995. The conditions noted are these: ref Hennig et al. 2002, 2005, Toborek et al. 1995; cited from earlier work.
For `Clc1ccc(-c2ccc(Cl)c(Cl)c2)cc1Cl` [PCB 77], the EC toxicity result is recorded as “potent inducers of EC toxicity”.
Regarding `Clc1ccc(-c2cc(Cl)c(Cl)c(Cl)c2Cl)cc1` [PCB 114], the EC toxicity result is recorded as “potent inducers of EC toxicity”.
As to `Clc1ccc(-c2cc(Cl)c(Cl)cc2Cl)cc1Cl` [PCB 118], the EC toxicity result was “potent inducers of EC toxicity”.
